pIC50: −log10 of the molar value.
Biological target: human PD-L1 (Homo sapiens (Human), UniProt Q9NZQ7)
Test: Enzyme-Linked Immunosorbent Assay (ELISA), PD-1/PD-L1 binding
Conditions: PD-1/PD-L1 ELISA, human PD-L1 coated plates, Table 1
Protocol: 96 Well plates were coated with […] of human PD-L1 (obtained from R&D) in PBS overnight at 4° C. The wells were then blocked with 2% BSA in PBS (W/V) with 0.05% TWEEN-20 for 1 hour at 37° C. The plates were washed 3 times with PBS/0.05% TWEEN-20 and the compounds were serial diluted (1:5) in dilution medium and added to the ELISA plates. Human PD-1 […] 0.31 μg/mL (ACRO Biosystems) were added and incubated for 1 hour at 37° C. then washed 3 times with PBS/0.05% TWEEN-20. A second block was performed with 2% BSA in PBS (W/V)/0.05% TWEEN-20 for 10 min at 37° C. and the plates were washed 3 times with PBS/0.05% TWEEN-20. Streptavidin-HRP was added for 1 hour at 37° C. then the plates were washed 3 times with PBS/0.05% TWEEN-20. TMB substrate was added and reacted for 20 min at 37° C. A stop solution (2 N aqueous H2SO4) was added. The absorbance was read at 450 nm using a micro-plate spectrophotometer.
Using the methods described in the Examples above, the compounds in Table 2 were prepared & tested for biological activity using the ELISA method described above.

human PD-L1, sequence (Q9NZQ7 19-239): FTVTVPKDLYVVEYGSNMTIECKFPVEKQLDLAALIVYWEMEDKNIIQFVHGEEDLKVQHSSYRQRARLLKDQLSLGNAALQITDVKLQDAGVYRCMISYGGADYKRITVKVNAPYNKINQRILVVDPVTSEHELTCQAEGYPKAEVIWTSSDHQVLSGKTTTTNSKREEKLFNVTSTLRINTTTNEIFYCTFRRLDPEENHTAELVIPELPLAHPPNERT

Structure (SMILES) | pIC50
COc1cc(-c2cccc(-c3cccc(NC(=O)C4CCCNC4)c3C)c2C)cc(F)c1CN (stereo not drawn) [Example 1.394] | 5.00 to 6.00
COc1cc(-c2cccc(-c3cccc(NC(=O)c4ccccn4)c3C)c2Cl)cc(F)c1CN1CC(C(=O)O)C1 [Example 1.365] | > 8.00
COc1cc(-c2cccc(-c3cccc(NC(=O)c4c[nH]c(=O)n(C)c4=O)c3C)c2C)cc(F)c1CN1CCC(N)C1 (stereo not drawn) [Example 1.228] | 6.00 to 8.00

The next lines start with the values.

pIC50 | Structure (SMILES)
6.00 to 8.00 | COc1cc(-c2cccc(-c3cccc(NC(=O)C4CNCCO4)c3C)c2C)cc(F)c1CNCCO (stereo not drawn) [Example 1.324]
6.00 to 8.00 | COc1cc(-c2cccc(-c3cccc(Nc4cc5c(cn4)C(=O)NCC5)c3C)c2C)cc(F)c1CN1CC(C(=O)O)C1 [Example 1.264]
> 8.00 | COc1cc(-c2cccc(-c3cccc(NC(=O)c4cnc(CO)cn4)c3C)c2C)cc(F)c1CN1CC(C(=O)O)C1 [Example 1.326]
> 8.00 | COc1cc(-c2cccc(-c3cccc(NC(=O)c4cccn(C)c4=O)c3C)c2C)cc(F)c1CNCCC(=O)O [Example 1.282]
6.00 to 8.00 | COc1cc(-c2cccc(-c3cccc(NC(=O)c4ccncn4)c3C)c2C)cc(F)c1CNCC(=O)O [Example 1.339]
6.00 to 8.00 | COc1cc(-c2cccc(-c3cccc(NC(=O)c4ccccn4)c3C)c2C)cc(F)c1C(C)N (stereo not drawn) [Example 1.344]
5.00 to 6.00 | COc1cc(-c2cccc(-c3cccc(NC(=O)c4cc(C(=O)O)[nH]n4)c3C)c2C)cc(F)c1CN [Example 1.304]
> 8.00 | COc1cc(-c2cccc(-c3cccc(NC(=O)c4c[nH]c(=O)n(C)c4=O)c3C)c2C)cc(F)c1CNCCN [Example 1.234]
> 8.00 | COc1cc(-c2cccc(-c3cccc(NC(=O)c4cncn(C)c4=O)c3C)c2C)cc(F)c1CNC1CCCC1 [Example 1.198]
> 8.00 | COc1cc(-c2cccc(-c3cccc(Nc4nccc5nccnc45)c3C)c2C)cc(F)c1CNC[C@@H](C)O [Example 1.208]
6.00 to 8.00 | COc1cc(-c2cccc(-c3cccc(NC(=O)c4ccccn4)c3C)c2C)cc(F)c1CN1CCC[C@@H](C(=O)O)C1 [Example 1.354]
6.00 to 8.00 | COc1cc(-c2cccc(-c3cccc(Nc4ccnc5cccnc45)c3C)c2C)cc(F)c1CN1CC(C(=O)O)C1 [Example 1.263]
> 8.00 | COc1cc(-c2cccc(-c3cccc(NC(=O)c4c[nH]c(=O)n(C)c4=O)c3C)c2C)cc(F)c1CNCC1(O)CC1 [Example 1.214]
6.00 to 8.00 | COc1cc(-c2cccc(-c3cccc(NC(=O)c4cccn(C)c4=O)c3C)c2C)cc(F)c1CN[C@@](C)(CO)C(=O)O [Example 1.289]
> 8.00 | COc1cc(-c2cccc(-c3cccc(NC(=O)c4ccncn4)c3C)c2C)cc(F)c1CNCCO [Example 1.338]
6.00 to 8.00 | COc1cc(-c2cccc(-c3cccc(Nc4cccc5c4C(=O)N(C)C5)c3C)c2C)cc(F)c1CN1CC(C(=O)O)C1 [Example 1.250]
> 8.00 | COc1cc(-c2cccc(-c3cccc(NC(=O)c4cccn(C)c4=O)c3C)c2C)cc(F)c1CNCCS(=O)(=O)O [Example 1.280]
6.00 to 8.00 | COc1cc(-c2cccc(-c3cccc(NC(=O)c4ccccn4)c3C)c2C)cc(F)c1CN1CCCC[C@H]1C(=O)O [Example 1.380]
> 8.00 | COc1cc(-c2cccc(-c3cccc(NC(=O)c4ccncn4)c3C)c2C)cc(F)c1CNCCCC(=O)O [Example 1.345]

Same assay, conditions: human PD-1/PD-L1 ELISA, plates coated with human PD-L1

Structure (SMILES) | pIC50
COc1cc(-c2cccc(-c3cccc(NC(=O)c4cn(C)c(=O)n(C)c4=O)c3C)c2F)cc(F)c1CNC[C@@H]1CCC(=O)N1 [Example 1.021] | > 8.00
COc1cc(-c2cccc(-c3cccc(NC(=O)c4cn(C)c(=O)n(C)c4=O)c3F)c2C)cc(F)c1CN[C@@H]1CNC(=O)C1 [Example 1.044] | 6.00 to 8.00
COc1cc(-c2cccc(-c3cccc(NC(=O)c4c[nH]c(=O)n(C)c4=O)c3C)c2C)cc(F)c1CN[C@@H]1CCOC1 [Example 1.049] | > 8.00
COc1cc(-c2cccc(-c3cccc(NC(=O)c4cn(C)c(=O)n(C)c4=O)c3Cl)c2C)cc(F)c1CN[C@@H]1CNC(=O)C1 [Example 1.047] | > 8.00
COc1cc(-c2cccc(-c3cccc(NC(=O)c4cn(C)c(=O)n(C)c4=O)c3C)c2F)cc(F)c1CN[C@@H]1CNC(=O)C1 [Example 1.020] | > 8.00
COc1cc(-c2cccc(-c3cccc(NC(=O)c4cn(C)c(=O)n(C)c4=O)c3Cl)c2C)cc(F)c1CN[C@@H]1CCC(=O)NC1 [Example 1.009] | > 8.00
COc1cc(-c2cccc(-c3cccc(NC(=O)c4nc5c(s4)CN(CCO)CC5)c3F)c2C)cc(F)c1CNCCO [Example 1.400] | > 8.00
COc1cc(-c2cccc(-c3cccc(NC(=O)c4cncn(C)c4=O)c3C)c2C)cc(F)c1CN(C)C[C@@H]1CCC(=O)N1C [Example 1.189] | 6.00 to 8.00
COc1cc(-c2cccc(-c3cccc(NC(=O)c4nn(C)c(=O)n(C)c4=O)c3C)c2C)cc(F)c1CNC1CNC(=O)NC1=O (stereo not drawn) [Example 1.045] | 6.00 to 8.00

The remaining lines, values ahead:

pIC50 | Structure (SMILES)
> 8.00 | COc1cc(-c2cccc(-c3cccc(NC(=O)c4cn(C)c(=O)n(C)c4=O)c3C)c2C)cc(F)c1CNCC1CCCNC1=O (stereo not drawn) [Example 1.095]
> 8.00 | COc1cc(-c2cccc(-c3cccc(Nc4nccc5nccnc45)c3C)c2C)cc(F)c1CN[C@H]1CCC[C@@H]1O [Example 1.144]
> 8.00 | COc1cc(-c2cccc(-c3cccc(NC(=O)c4cncn(C)c4=O)c3C)c2C)cc(F)c1CN(C)CCO [Example 1.176]
> 8.00 | COc1cc(-c2cccc(-c3cccc(NC(=O)c4cccn(C)c4=O)c3C)c2C)cc(F)c1CNC[C@@H]1CCC(=O)N1 [Example 1.157]
> 8.00 | COc1cc(-c2cccc(-c3cccc(NC(=O)c4cncn(C)c4=O)c3C)c2C)cc(F)c1CNCC1(O)CC1 [Example 1.140]
> 8.00 | COc1cc(-c2cccc(-c3cccc(NC(=O)c4nn(C)c(=O)n(C)c4=O)c3C)c2C)cc(F)c1CN[C@@H]1CNC(=O)C1 [Example 1.105]
> 8.00 | COc1cc(-c2cccc(-c3cccc(NC(=O)c4cncn(C)c4=O)c3C)c2C)cc(F)c1CNCc1c[nH]c(=O)[nH]c1=O [Example 1.113]
> 8.00 | COc1cc(-c2cccc(-c3cccc(Nc4cncc5nccnc45)c3C)c2C)cc(F)c1CNC[C@@H]1CCC(=O)N1 [Example 1.048]
> 8.00 | COc1cc(-c2cccc(-c3cccc(NC(=O)c4c[nH]c(=O)n(C)c4=O)c3C)c2C)cc(F)c1CNCCN1CCCC1=O [Example 1.131]
> 8.00 | COc1cc(-c2cccc(-c3cccc(NC(=O)c4cccn(C)c4=O)c3C)c2C)cc(F)c1CN(C)C[C@@H]1CCC(=O)N1 [Example 1.167]
> 8.00 | COc1cc(-c2cccc(-c3cccc(NC(=O)c4cncn(C)c4=O)c3C)c2C)cc(F)c1CN[C@H]1CCC[C@H]1O [Example 1.161]
6.00 to 8.00 | COc1cc(-c2cccc(-c3cccc(Nc4nccc5c4C(=O)N(C)CC5)c3C)c2C)cc(F)c1CNC(C)C [Example 1.184]
> 8.00 | COc1cc(-c2cccc(-c3cccc(NC(=O)c4cccn(C)c4=O)c3C)c2C)cc(F)c1CN(C)CCO [Example 1.164]
> 8.00 | COc1cc(-c2cccc(-c3cccc(NC(=O)c4cn(C)c(=O)n(C)c4=O)c3C)c2C)cc(F)c1CNCC[C@@H]1CCC(=O)N1 [Example 1.108]
> 8.00 | COc1cc(-c2cccc(-c3cccc(NC(=O)c4cn(C)c(=O)n(C)c4=O)c3C)c2C)cc(F)c1CNCCO [Example 1.179]

Same assay, conditions: plate-coated human PD-L1, biotinylated Human PD-1, absorbance at 450 nm

Structure (SMILES) | pIC50
COc1cc(-c2cccc(-c3cccc(NC(=O)c4cn(C)c(=O)n(C)c4=O)c3C)c2Cl)cc(F)c1CN1CCC(C)(C(=O)O)CC1 [Example 2.013] | > 8.00
COc1cc(-c2cccc(-c3cccc(NC(=O)c4cn(C)c(=O)n(C)c4=O)c3C)c2Cl)cc(F)c1CN1CC(C(=O)O)C1 [Example 2.046] | > 8.00
COc1cc(-c2cccc(-c3cccc(NC(=O)c4cn(C)c(=O)n(C)c4=O)c3C)c2Cl)cc(F)c1CNCC1(O)CC1 [Example 2.056] | > 8.00
COc1cc(-c2cccc(-c3cccc(NC(=O)c4cn(C)c(=O)n(C)c4=O)c3Cl)c2Cl)cc(F)c1CN[C@H]1CNC(=O)C1 [Example 2.081] | > 8.00
COc1cc(-c2cccc(-c3cccc(NC(=O)c4cn(C)c(=O)n(C)c4=O)c3C)c2Cl)cc(F)c1CN[C@H]1COC[C@@H]1O [Example 2.092] | > 8.00
CCOc1cc(-c2cccc(-c3cccc(NC(=O)c4cn(C)c(=O)n(C)c4=O)c3Cl)c2Cl)cc(F)c1CN[C@H]1CCC(=O)NC1 [Example 2.036] | > 8.00
COc1cc(-c2cccc(-c3cccc(NC(=O)c4c[nH]c(=O)n(C)c4=O)c3C)c2Cl)cc(F)c1CN[C@H]1CCC(=O)NC1 [Example 2.032] | > 8.00
COc1cc(-c2cccc(-c3cccc(NC(=O)c4cn(C)c(=O)n(C)c4=O)c3Cl)c2Cl)cc(F)c1CN(C)[C@H]1CNC(=O)C1 [Example 2.055] | 6.00 to 8.00
COc1cc(-c2cccc(-c3cccc(NC(=O)c4cn(C)c(=O)n(C)c4=O)c3C)c2Cl)cc(F)c1CN[C@@H]1COC[C@@H]1O [Example 2.094] | > 8.00
COc1cc(-c2cccc(-c3cccc(NC(=O)c4cn(C)c(=O)n(C)c4=O)c3C)c2Cl)cc(F)c1CNC1(C)CCOCC1 [Example 2.050] | > 8.00
COc1cc(-c2cccc(-c3cccc(NC(=O)c4c[nH]c(=O)n(C)c4=O)c3C)c2Cl)cc(F)c1CNCC1(C(N)=O)CC1 [Example 2.031] | > 8.00

From patent US11266643B2, “Triaryl compounds for treatment of PD-L1 diseases” (CHEMOCENTRYX, INC., priority 2019, dated 2022)
